Common to all, as to assay type: biochemical
In assay [1] the target is T1, Recombinant human AKR1C3 (17β-HSD5) protein (Homo sapiens, UniProt P42330).
T1 construct: made in house; host or cells: E. coli
T1 sequence (P42330 1-323): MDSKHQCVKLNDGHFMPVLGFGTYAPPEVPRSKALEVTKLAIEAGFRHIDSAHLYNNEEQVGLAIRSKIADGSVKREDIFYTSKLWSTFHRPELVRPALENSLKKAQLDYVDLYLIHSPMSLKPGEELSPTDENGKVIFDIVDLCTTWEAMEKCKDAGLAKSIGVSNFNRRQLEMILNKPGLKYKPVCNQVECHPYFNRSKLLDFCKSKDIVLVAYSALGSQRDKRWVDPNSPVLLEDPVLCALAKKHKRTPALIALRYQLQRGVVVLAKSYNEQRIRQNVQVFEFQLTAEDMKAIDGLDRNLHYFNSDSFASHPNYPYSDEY
Nature of the assay: Inhibition of AKR1C3 (17β-hydroxysteroid dehydrogenase type 5) enzyme, fluorescence assay. The following applies: inhibitor at 500 nM. On the procedure:
Inhibition of AKR1C3 (17β-Hydroxysteroid Dehydrogenase Type 5) Enzyme
Recombinant human AKR1C3 (17β-HSD5) protein (GenBank Accession No. NM_003739.6) produced in E. coli was used for screening. Recombinant protein (27 nM/1 μg/ml) was incubated in 20 mM KH2PO4, 1 mM EDTA, complete protease inhibitor cocktail, pH 7.4 with 1 μM 9-acetyl-2,3,6,7-tetrahydro-1H,5H,11H-pyrano[2,3-f]pyrido[3,2,1-ij]quinolin-11-one and 1 mM NADPH for 60 to 120 min at RT, in the presence of the potential inhibitor at 500 nM concentration. Inhibitor stock solutions were prepared in DMSO. Final concentration of DMSO was adjusted to 1% in all samples. The samples were analysed by fluorescent measurement with Tecan Spark microplate reader at wavelengths 420 nm for excitation and 510 nm for emission. Samples were evaluated against standards of 9-(1-hydroxyethyl)-2,3,6,7-tetrahydro-1H,5H,11H-pyrano[2,3-f]pyrido[3,2,1-ij]quinolin-11-one at concentrations 1 μM-10 nM. Background fluorescence was reduced from all the samples and standards. The concentrations of formed product were calculated from the standard curve with Tecan Spark Magellan software. The formed product concentrations were used to calculate conversion percentages. The inhibition percentages for the samples were calculated from the conversion percentages.
Inhibition percentages of samples were calculated using following formula: […]

The target of assay [2] is T2, Recombinant human aldo-keto reductase family 1 member C2 (AKR1C2) protein (Homo sapiens, UniProt P52895).
T2 construct: made in house; host or cells: Sf-9 insect cells (baculovirus)
T2 sequence (P52895 1-323): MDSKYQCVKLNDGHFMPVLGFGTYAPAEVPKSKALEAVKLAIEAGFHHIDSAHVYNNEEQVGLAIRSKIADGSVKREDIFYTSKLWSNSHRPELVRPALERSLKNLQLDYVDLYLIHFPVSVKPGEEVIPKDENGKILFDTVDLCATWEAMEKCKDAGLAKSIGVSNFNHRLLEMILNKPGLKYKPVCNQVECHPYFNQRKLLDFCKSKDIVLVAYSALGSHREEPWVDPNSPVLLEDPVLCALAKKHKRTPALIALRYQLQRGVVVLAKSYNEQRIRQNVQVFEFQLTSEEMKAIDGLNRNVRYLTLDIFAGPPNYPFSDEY
Nature of the assay: Inhibition of the aldo-keto reductase family 1 member C2, 3H-dihydrotestosterone conversion. The conditions noted are these: inhibitor at 10 μM. The method, then:
Inhibition of the Aldo-Keto Reductase Family 1 Member C2
Recombinant human aldo-keto reductase family 1 member C2 (AKR1C2) protein (GenBank Accession No. NM_001354.6) produced in Sf-9 insect cells with baculovirus was used for screening. Recombinant protein (13.6 nM/0.5 μg/ml) was incubated in 20 mM KH2PO4 pH 7.4, 1 mM EDTA, complete protease inhibitor tablet, 1 mM NADPH with 6.25 nM ^3H-labelled dihydrotestosterone for 45 min at +37° C., in the presence of the potential inhibitor at 10 μM concentration. Inhibitor stock solutions were prepared in DMSO. Final concentration of DMSO was adjusted to 1% in all samples. The enzyme reaction was stopped by addition of 10% trichloroacetic acid (final concentration 1%). Samples were filtrated through […] filtration plate (Merck). Analyses of samples was done with Waters Acquity UPLC H-class equipped with XBridge C18 column and XBridge VanGuard C18 guard column. Acetonitrile: 0.1% formic acid in water (42/58 v/v) with flow of 1.2 ml/min was used for mobile phase. The eluent was mixed with scintillant and the radioactivity was monitored in the eluate by a Scintillation Analyser. The conversion percentage of triated substrate (dihydrotestosterone) to tritiated product (5α-androstane-3α,17β-diol) for each sample was determined by the relative percentages of substrate and product in the chromatogram. The inhibition percentages of samples were calculated using following formula: […]

Assay [3] addresses T3, 17β-Hydroxysteroid Dehydrogenase Type 2 Enzyme (17β-HSD2) (Homo sapiens, UniProt P37059).
T3 construct: made in house; host or cells: Sf-9 insect cells (baculovirus)
T3 sequence (P37059 1-387): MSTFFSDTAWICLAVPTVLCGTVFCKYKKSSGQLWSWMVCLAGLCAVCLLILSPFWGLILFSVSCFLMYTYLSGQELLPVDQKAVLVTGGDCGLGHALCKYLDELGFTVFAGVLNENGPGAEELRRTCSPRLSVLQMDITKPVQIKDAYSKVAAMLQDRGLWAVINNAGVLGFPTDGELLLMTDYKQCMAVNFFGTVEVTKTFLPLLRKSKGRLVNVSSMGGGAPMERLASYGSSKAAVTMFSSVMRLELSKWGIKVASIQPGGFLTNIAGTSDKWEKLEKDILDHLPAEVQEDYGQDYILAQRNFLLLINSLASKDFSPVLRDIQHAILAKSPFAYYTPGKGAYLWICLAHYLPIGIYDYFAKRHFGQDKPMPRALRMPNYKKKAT
Nature of the assay: Inhibition of the 17β-hydroxysteroid dehydrogenase type 2 enzyme, 3H-testosterone conversion. The conditions noted are these: inhibitor at 10 μM. On the procedure:
Inhibition of the 17β-Hydroxysteroid Dehydrogenase Type 2 Enzyme
Recombinant human 173-HSD2 protein (GenBank Accession No. NM_002153.3) produced in Sf-9 insect cells with baculovirus was used for screening.
Recombinant protein (105 nM/4.5 μg/ml) was incubated in 20 mM KH2PO4 pH 8.5, 1 mM EDTA, complete protease inhibitor cocktail, 1 mM NAD with 56.25 nM testosterone (including ^3H-labelled testosterone) for 30 min at RT, in the presence of the potential inhibitor at 10 μM concentration. Inhibitor stock solutions were prepared in DMSO. Final concentration of DMSO was adjusted to 1% in all samples. The enzyme reaction was stopped by addition of 10% trichloroacetic acid (final concentration 1%). Samples were filtrated through […] filtration plate. Analyses of samples was done with Waters Acquity UPLC H-class equipped with XBridge C18 column and XBridge VanGuard C18 guard column. Acetonitrile: 0.1% formic acid in water (42/58 v/v) with flow of 1.2 ml/min was used for mobile phase. The eluent was mixed with scintillant and the radioactivity was monitored in the eluate by a Scintillation Analyser. The conversion percentage of tritiated substrate (testosterone) to product tritiated (androstenedione) for each sample was determined by the relative percentages of substrate and product in the chromatogram. The inhibition percentages of samples were calculated using following formula: […]

For orientation: inhibition means the change of the read-out against control, counted positive when it falls. As to `N#CC(=C1CCN(C(=O)N2CCn3ncnc3C2)CC1)c1ccc(Cl)s1` [Compound 168, 2-(5-chlorothiophen-2-yl)-2-(1-(5,6,7,8-tetrahydro-[1,2,4]triazolo[1,5-a]pyrazine-7-carbonyl)piperidin-4-ylidene)acetonitrile], in assay [1], the inhibition at 0.5 µM came out at 98%. Further, the results for the inhibition at 10 µM in assay [2] and in assay [3] were 24% and -2%, respectively.

Regarding `N#CC(=C1CCN(C(=O)N2CCn3nncc3C2)CC1)c1ccc(OC(F)(F)F)cc1` [Compound 162, 2-(1-(4,5,6,7-tetrahydro-[1,2,3]triazolo[1,5-a]pyrazine-5-carbonyl)piperidin-4-ylidene)-2-(4-(trifluoromethoxy)phenyl)acetonitrile], the inhibition at 0.5 µM in assay [1] turned out to be 98%. Moreover, the inhibition at 10 µM in assay [2] turned out to be 17%; in assay [3] it was 1%.

In the case of `N#CC(=C1CCN(C(=O)N2CCC(CCCO)CC2)CC1)c1cccc(Cl)c1` [Compound 95, 2-(3-chlorophenyl)-2-(1-(4-(3-hydroxypropyl)piperidine-1-carbonyl)piperidin-4-ylidene)acetonitrile], the inhibition at 0.5 µM in assay [1] worked out at 94%. Besides, the values for the inhibition at 10 µM in assay [2] and in assay [3] were 22% and 25%, respectively.

Consider `CCN(CC)C(=O)N1CCC(=C(C#N)c2ccc(F)cc2)CC1` [Compound 5, 4-(cyano(4-fluorophenyl)methylene)-N,N-diethylpiperidine-1-carboxamide], for which the inhibition at 0.5 µM in assay [1] was determined as 99%. Further, the inhibition at 10 µM in assay [2] and in assay [3] was 15% in each case.

As for `N#CC(=C1CCN(C(=O)N2CCC(C(F)(F)F)CC2)CC1)c1ccc(Cl)cc1` [Compound 90, 2-(4-chlorophenyl)-2-(1-(4-(trifluoromethyl)piperidine-1-carbonyl)piperidin-4-ylidene)acetonitrile], the inhibition at 0.5 µM in assay [1] was determined as 99%. Besides, the inhibition at 10 µM in assay [2] is 9%; in assay [3], 30%.

As for `COC1CCN(C(=O)N2CCC(=C(C#N)c3ccc(Cl)s3)CC2)CC1` [Compound 78, 2-(5-chlorothiophen-2-yl)-2-(1-(4-methoxypiperidine-1-carbonyl)piperidin-4-ylidene)acetonitrile], in assay [1], the inhibition at 0.5 µM came out at 99%. Besides, the inhibition at 10 µM in assay [2] was found to be 15%; in assay [3], 27%.

Take `N#CC(=C1CCN(C(=O)N2CC(C#N)C2)CC1)c1ccc(F)cc1F` [Compound 40, 1-(4-(cyano(2,4-difluorophenyl)methylene)piperidine-1-carbonyl)azetidine-3-carbonitrile]: the inhibition at 0.5 µM in assay [1] came out at 95%. In addition, the inhibition at 10 µM in assay [2] came to 14%; in assay [3] it was 5%.

Consider `CN(C(=O)N1CCC(=C(C#N)c2ccc(F)cc2)CC1)C1CCOCC1` [Compound 14, 4-(cyano(4-fluorophenyl)methylene)-N-methyl-N-(tetrahydro-2H-pyran-4-yl)piperidine-1-carboxamide], for which the inhibition at 0.5 µM in assay [1] stood at 94%. Besides, the inhibition at 10 µM in assay [2] was 11%; in assay [3], 3%.

`N#CC(=C1CCN(C(=O)N2CCC(O)CC2)CC1)c1cccc2cn[nH]c12` [Compound 56, 2-(1-(4-hydroxypiperidine-1-carbonyl)piperidin-4-ylidene)-2-(1H-indazol-7-yl)acetonitrile]: the inhibition at 0.5 µM in assay [1] worked out at 86%. The results for the inhibition at 10 µM in assay [2] and in assay [3] were -3% and 3%, respectively.

`N#CC(=C1CCN(C(=O)N2CC3CCCC3C2)CC1)c1ccc(F)cc1` (stereo not drawn) [Compound 101, 2-(4-fluorophenyl)-2-(1-(octahydrocyclopenta[c]pyrrole-2-carbonyl)piperidin-4-ylidene)acetonitrile]: the inhibition at 0.5 µM in assay [1] was 90%. The inhibition at 10 µM was found to be 11% in assay [2] and 14% in assay [3].

For `N#CC(=C1CCN(C(=O)N2CCc3nocc3C2)CC1)c1ccc(C(F)(F)F)cc1` [Compound 87, 2-(1-(4,5,6,7-tetrahydroisoxazolo[4,3-c]pyridine-5-carbonyl)piperidin-4-ylidene)-2-(4-(trifluoromethyl)phenyl)acetonitrile], the inhibition at 0.5 µM in assay [1] was 99%. Further, the inhibition at 10 µM turned out to be 31% in assay [2] and 23% in assay [3].

For `N#CC(=C1CCN(C(=O)N2CCc3nocc3C2)CC1)c1ccc(Cl)cc1` [Compound 141, 2-(4-chlorophenyl)-2-(1-(4,5,6,7-tetrahydroisoxazolo[4,3-c]pyridine-5-carbonyl)piperidin-4-ylidene)acetonitrile], the inhibition at 0.5 µM in assay [1] was 98%. For the same compound, the inhibition at 10 µM is 33% in assay [2] and 7% in assay [3].

For `N#CC(=C1CCN(C(=O)N2CCc3nocc3C2)CC1)c1ccc(Cl)cn1` [Compound 161, 2-(5-chloropyridin-2-yl)-2-(1-(4,5,6,7-tetrahydroisoxazolo[4,3-c]pyridine-5-carbonyl)piperidin-4-ylidene)acetonitrile], the inhibition at 0.5 µM in assay [1] was 98%. The inhibition at 10 µM in assay [2] is 19%; in assay [3], 7%.

Regarding `CC(=O)N1CCN(C(=O)N2CCC(=C(C#N)c3cccc(Cl)c3)CC2)CC1` [Compound 96, 2-(1-(4-acetylpiperazine-1-carbonyl)piperidin-4-ylidene)-2-(3-chlorophenyl)acetonitrile], the inhibition at 0.5 µM in assay [1] stood at 95%. Besides, the inhibition at 10 µM turned out to be 13% in assay [2] and 11% in assay [3].

Values taken from patent publication US12637471B2, “Heterocyclic compounds, compositions, methods of preparation and uses thereof” (Organon R&D Finland Ltd, priority 2021, dated 2026).
